Consider one compound from patent US20250205205A1, “METHODS AND COMPOSITIONS FOR PREVENTING AND TREATING FIBROSIS AND IMPROVING FUNCTIONAL RECOVERY AFTER INJURY OR WITH AGING” (East Carolina University, priority 2022, published 2025).

One assay has as its system sciatic nerve injury. As to the kind of experiment: Pain withdrawal reflex latencies after unilateral sciatic nerve injury and long-term treatment (FIG. 3). As to conditions: unilateral sciatic nerve injury; long-term treatment; PPX 0.5 mg/kg, morphine 1 mg/kg, alone or combined. It is filed as in vivo.
For a further assay, the system named is sciatic nerve. As to the kind of experiment: Sciatic nerve function: compound action potentials (CAPs) on electrical stimulation after sciatic nerve injury and long-term treatment (FIG. 2). It is filed as in vivo. As to conditions: sciatic nerve injury; daily treatments of 100 μl in saline; PPX 0.5 mg/kg, morphine 1 mg/kg, alone or combined; representative animal.

Turning to `CN1CC[C@]23c4c5ccc(O)c4O[C@H]2[C@@H](O)C=C[C@H]3[C@H]1C5` [morphine], the “pain withdrawal reflex latencies of the injured side versus pre-injury data (days −3 to −1)” value in the assay with sciatic nerve injury is “did not lead to a recovery of withdrawal latencies to pre-injury data”. For the same compound, the “compound action potential (CAP) on stimulation of the nerve on the injured side” value in the assay with sciatic nerve was “failed to elicit a similarly strong CAP”.
